We go through three molecules from paper PMC11800397, “Identification of the Polymerizing Glycosyltransferase Required for the Addition of D-Glucuronic Acid to the Capsular Polysaccharide of Campylobacter jejuni” (Biochemistry, 2025).

In data set [1] the target is T1, Cj1438C (C-terminal domain of Cj1438) (Campylobacter jejuni, UniProt Q0P8H6).
T1 construct: C-terminal hexahistidine tag (pET31b(+)); E. coli; 40,084 Da
Description: product analysis by ESI-MS, 1H and […] NMR. It counts as biochemical. Conditions: 5.0 mM ATP, 10 mM MgCl2, 50 mM NH4HCO3, pH 8.0, 25 °C, 4 h.

Data set [2] has as its system CO[C@@H]1O[C@H](CO)[C@@H](O)[C@H]1O. The data set can be described thus: purified protein. Conditions: 2.0 mM UDP-D-GlcA fixed, 0-25 mM substrate, 10 μM enzyme, 50 mM NH4HCO3, pH 8.0, 25 °C.

T1 sequence (Q0P8H6 entry or part of it): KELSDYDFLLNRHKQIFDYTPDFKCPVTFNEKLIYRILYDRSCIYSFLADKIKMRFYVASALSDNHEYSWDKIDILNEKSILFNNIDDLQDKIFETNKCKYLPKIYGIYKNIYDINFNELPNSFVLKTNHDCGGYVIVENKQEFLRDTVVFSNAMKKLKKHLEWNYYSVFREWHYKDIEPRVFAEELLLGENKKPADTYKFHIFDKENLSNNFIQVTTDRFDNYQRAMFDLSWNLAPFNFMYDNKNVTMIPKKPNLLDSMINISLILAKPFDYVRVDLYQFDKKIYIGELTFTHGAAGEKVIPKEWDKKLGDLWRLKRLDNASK

On to `CO[C@@H]1O[C@H](CO)[C@@H](O)[C@H]1O[C@H]1O[C@H](C(=O)O)[C@@H](O)[C@H](O)[C@H]1O` [7a, compound 7a], for which, in data set [1] (5.0 mM (S)-serinol phosphate), the “product analysis by ESI-MS, 1H and 31P NMR” value was “Incubation of Cj1438C with ATP, MgCl2, compound 7a, and (S)-serinol-P resulted in the formation”.

One may read the Km as the concentration of substrate that gives half-maximal velocity. For orientation: kcat means the number of substrate molecules converted per active site and unit of time at saturation. With “Cj1432N (N-terminal domain of Cj1432) (Campylobacter jejuni subsp. jejuni NCTC 11168 = ATCC 700819)”, in data set [2], the Michaelis-Menten constant (Km) came out at 970 ± 90 µM and the kcat amounted to 0.0085 ± 0.00017 s⁻¹.

For the molecule `N[C@@H](CO)COP(=O)(O)O` [(S)-serinol phosphate], the “product analysis by ESI-MS, 1H and 31P NMR” value in data set [1] (5.0 mM compound 7a) is “Incubation of Cj1438C with ATP, MgCl2, compound 7a, and (S)-serinol-P resulted in the formation”.
